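Each compound was tested at five concentrations against cells in 96-well plates for 48 hours. GI50 is the concentration that inhibits growth by half.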 Activity calls are given as the source filed them. Cut-off read from the data, not from the text of the source: active = GI50 up to about 1.1 µM and inactive = higher.
What was measured:
Test in all cases: growth of human tumour cells (NCI), 48 h
CAKI-1 = tested on: CAKI-1
HT-29 = tested on: HT-29
KM-20L2 = tested on: KM-20L2
M14 = tested on: M14
M19-MEL = tested on: M19-MEL
NCI-H23 = tested on: NCI-H23
NCI-H522 = tested on: NCI-H522
RXF 393 = tested on: RXF 393
SK-MEL-28 = tested on: SK-MEL-28
SN12C = tested on: SN12C
SNB-78 = tested on: SNB-78
TK-10 = tested on: TK-10
XF498 = tested on: XF498
HOP-62 = tested on: HOP-62
Hs-578T = tested on: Hs-578T
MCF7 = tested on: MCF7
MDA-MB-435 = tested on: MDA-MB-435
MDA-N = tested on: MDA-N
NCI/ADR-RES = tested on: NCI/ADR-RES
T47D = tested on: T47D

Measured: GI50

CCOC(=O)C/C(N)=C(\C#N)C(=O)OCC
inactive: CAKI-1 > 100 µM | HT-29 > 100 µM | KM-20L2 > 100 µM | M14 > 100 µM | M19-MEL > 100 µM | NCI-H23 > 100 µM | NCI-H522 > 100 µM | RXF 393 > 100 µM | SK-MEL-28 > 100 µM | SN12C > 100 µM | SNB-78 > 100 µM | TK-10 > 100 µM | XF498 > 100 µM

Nc1ccccc1C(=O)/C=C/c1ccccc1O
inactive: CAKI-1 25.6 µM | HOP-62 > 100 µM | HT-29 > 100 µM | KM-20L2 > 100 µM | M14 32.3 µM | M19-MEL 72.3 µM | NCI-H23 56 µM | NCI-H522 34.5 µM | RXF 393 61.1 µM | SK-MEL-28 > 100 µM | SN12C 55.2 µM | SNB-78 41.5 µM | TK-10 93.5 µM | XF498 > 100 µM

CC(=O)NC(CCCNCc1ccccc1)C(=O)NCc1ccccc1 (configuration not stated)
inactive: CAKI-1 > 100 µM | HOP-62 > 100 µM | HT-29 > 100 µM | KM-20L2 > 100 µM | M14 > 100 µM | M19-MEL > 100 µM | NCI-H23 > 100 µM | NCI-H522 > 100 µM | RXF 393 > 100 µM | SK-MEL-28 > 100 µM | SN12C > 100 µM | SNB-78 82 µM | TK-10 > 100 µM | XF498 > 100 µM

CS(=O)(=O)c1nc(N)nc2nc[nH]c12
inactive: CAKI-1 > 100 µM | HOP-62 > 100 µM | HT-29 > 100 µM | KM-20L2 > 100 µM | M14 > 100 µM | M19-MEL > 100 µM | NCI-H23 > 100 µM | NCI-H522 74.8 µM | RXF 393 > 100 µM | SK-MEL-28 > 100 µM | SN12C > 100 µM | SNB-78 > 100 µM | TK-10 > 100 µM | XF498 > 100 µM

CC(=O)CC(=O)Nc1ccccc1[N+](=O)[O-]
inactive: CAKI-1 > 100 µM | HOP-62 > 100 µM | HT-29 > 100 µM | KM-20L2 > 100 µM | M14 > 100 µM | M19-MEL > 100 µM | NCI-H23 > 100 µM | NCI-H522 > 100 µM | RXF 393 > 100 µM | SK-MEL-28 > 100 µM | SN12C > 100 µM | SNB-78 > 100 µM | TK-10 > 100 µM | XF498 > 100 µM

Cc1nc2c(o1)/C(=N\c1ccccc1)c1nc(C)oc1/C2=N/c1ccccc1
inactive: HOP-62 13.1 µM | HT-29 20.4 µM | KM-20L2 25.5 µM | M14 36.4 µM | M19-MEL 21.6 µM | NCI-H23 25.9 µM | NCI-H522 21.7 µM | RXF 393 20.6 µM | SK-MEL-28 23.9 µM | SN12C 17.5 µM | SNB-78 > 100 µM | TK-10 32.7 µM | XF498 18 µM

CCN(CC)CCNc1ccc2nnn3c4ccc([N+](=O)[O-])cc4c(=O)c1c23
inactive: CAKI-1 4.14 µM | HOP-62 2.28 µM | HT-29 3.89 µM | Hs-578T 14.1 µM | KM-20L2 4.94 µM | M14 11.8 µM | M19-MEL > 20.5 µM | MCF7 3.67 µM | MDA-MB-435 > 100 µM | MDA-N 71.8 µM | NCI-H23 10.8 µM | NCI-H522 8.15 µM | NCI/ADR-RES 7.16 µM | RXF 393 4.78 µM | SK-MEL-28 14 µM | SN12C 7.05 µM | SNB-78 9.71 µM | T47D > 100 µM | TK-10 11.6 µM | XF498 6.25 µM
